Results as given in US6355799B1, “Substituted benzene compounds, process for their preparation, and herbicidal and defoliant compositions containing them” (ISK Americas Incorporated, priority 1997, dated 2002).

What was measured:
Assay type in all cases: in vivo
[1] = tested on: redroot pigweed (Amaranthus retroflexus, AMARE); experiment: Pre-emerge test, greenhouse herbicide activity screening; conditions: rated 14 days after application, 0 = no damage, 100 = complete death
Outline: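 Compounds in acetone were track-sprayed at 187 l/ha, 15–1000 g ai/ha, onto sandy loam pots. Pre-emerge seeds were sown one day before spraying, with surface watering afterwards. Post-emerge plants were at the 2–3 leaf stage and sprayed with 0.25% v/v non-ionic surfactant. Injury was rated 0–100 at 14 days.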

[2] = tested on: upland rice (Oryza sp., var. Tebonnet, RICE); experiment: Post-emerge test, crop safety; conditions: post-emerge, 14 days after application, rating scale 0-100
Outline: (§1)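 Rating: 0–100 visual injury, 14 DAA. Application: acetone, 187 l/ha, 15–1000 g ai/ha, flat-fan track sprayer with nozzle 40–45 cm above soil or canopy. Post-emerge runs used 0.25% v/v surfactant on 2–3 leaf plants.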

[3] = tested on: field corn (Zea mays L., var. Dekalb 535, CORN); experiment: Post-emerge test, crop safety; conditions: post-emerge, 14 days after application, rating scale 0-100
Outline: as §1

[4] = tested on: upland rice (Oryza sp., var. Tebonnet, RICE); experiment: Pre-emerge test, crop safety; conditions: rated 14 days after application, 0 = no damage, 100 = complete death
Outline: (§2)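 Plants grown in 10 cm pots of sandy loam mix received acetone-dissolved compounds through a moving flat-fan nozzle. Doses ranged from 15 to 1000 g ai/ha. Pre-emerge pots were seeded one day earlier, post-emerge pots 8–21 days earlier. Fourteen days on, each pot was graded 0–100 for damage.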

[5] = tested on: field corn (Zea mays L., var. Dekalb 535, CORN); experiment: Pre-emerge test, crop safety; conditions: rated 14 days after application, 0 = no damage, 100 = complete death
Outline: as §2

[6] = tested on: green foxtail (Setaria viridis, SETVI); experiment: Pre-emerge test, greenhouse herbicide activity screening; conditions: rated 14 days after application, 0 = no damage, 100 = complete death
Outline: (§3)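 Compounds in acetone were track-sprayed at 15–1000 g ai/ha: pre-emergence onto soil sown the previous day, then top-watered to incorporate and later bottom-watered; post-emergence onto 2–3 leaf plants with 0.25% v/v surfactant, bottom-watered only. Ratings on a 0–100 phytotoxicity scale were taken at day 14.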

[7] = tested on: johnsongrass (Sorghum halepense, SORHA); experiment: as above; conditions: rated 14 days after application, 0 = no damage, 100 = complete death
Outline: as §3

[8] = tested on: large crabgrass (Digitaria sanguinalis, DIGSA); experiment: as above; conditions: rated 14 days after application, 0 = no damage, 100 = complete death
Outline: as §3

[9] = tested on: velvetleaf (Abutilon theophrasti, ABUTH); experiment: as above; conditions: rated 14 days after application, 0 = no damage, 100 = complete death
Outline: as §3

[10] = tested on: lambsquarters (Chenopodium album, CHEAL); experiment: as above; conditions: rated 14 days after application, 0 = no damage, 100 = complete death
Outline: as §3

[11] = tested on: ivyleaf morningglory (Ipomoea hederacea, IPOHE); experiment: as above; conditions: rated 14 days after application, 0 = no damage, 100 = complete death
Outline: as §3

[12] = tested on: barnyardgrass (Echinochloa crus-galli, ECHCG); experiment: as above; conditions: rated 14 days after application, 0 = no damage, 100 = complete death
Outline: as §3

[13] = tested on: sicklepod (Cassia obtusifolia, CASOB); experiment: as above; conditions: rated 14 days after application, 0 = no damage, 100 = complete death
Outline: as §3

[14] = tested on: green foxtail (Setaria viridis, SETVI); experiment: Post-emerge test, greenhouse herbicide activity screening; conditions: post-emerge, 14 days after application, rating scale 0-100
Outline: (§4)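 Visual ratings on a 0-100 scale (0 no damage, 100 all plants dead) were taken at 14 days after treatment. Rates of 15-1000 g ai/ha in acetone, 187 l/ha, were sprayed onto soil one day after planting (pre-emerge) or onto 2-3 leaf plants with 0.25% v/v surfactant (post-emerge).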

[15] = tested on: johnsongrass (Sorghum halepense, SORHA); experiment: as above; conditions: post-emerge, 14 days after application, rating scale 0-100
Outline: as §4

[16] = tested on: large crabgrass (Digitaria sanguinalis, DIGSA); experiment: as above; conditions: post-emerge, 14 days after application, rating scale 0-100
Outline: as §4

[17] = tested on: redroot pigweed (Amaranthus retroflexus, AMARE); experiment: as above; conditions: post-emerge, 14 days after application, rating scale 0-100
Outline: as §4

[18] = tested on: velvetleaf (Abutilon theophrasti, ABUTH); experiment: as above; conditions: post-emerge, 14 days after application, rating scale 0-100
Outline: as §4

[19] = tested on: lambsquarters (Chenopodium album, CHEAL); experiment: as above; conditions: post-emerge, 14 days after application, rating scale 0-100
Outline: as §4

[20] = tested on: ivyleaf morningglory (Ipomoea hederacea, IPOHE); experiment: as above; conditions: post-emerge, 14 days after application, rating scale 0-100
Outline: as §4

[21] = tested on: barnyardgrass (Echinochloa crus-galli, ECHCG); experiment: as above; conditions: post-emerge, 14 days after application, rating scale 0-100
Outline: as §4

[22] = tested on: sicklepod (Cassia obtusifolia, CASOB); experiment: as above; conditions: post-emerge, 14 days after application, rating scale 0-100
Outline: as §4

SMILES: Cn1c(C(F)(F)F)cc(=O)n(-c2c(F)cc(Cl)c(OCC#N)c2NC(=O)CCc2ccccc2)c1=O [2-87]
- Pre-emerge Herbicidal Activity, phytotoxicity rating (0-100), AMARE ([1]; 63 g ai/ha): 100
- Pre-emerge Herbicidal Activity, phytotoxicity rating (0-100), AMARE ([1]; 250 g ai/ha): 100
- phytotoxicity rating RICE ([2]; 63 g ai/ha): 40
- phytotoxicity rating RICE ([2]; 250 g ai/ha): 75
- phytotoxicity rating CORN ([3]; 63 g ai/ha): 30
- phytotoxicity rating CORN ([3]; 250 g ai/ha): 80
- Pre-emerge phytotoxicity rating (0-100), crop damage, RICE ([4]; 63 g ai/ha): 40
- Pre-emerge phytotoxicity rating (0-100), crop damage, RICE ([4]; 250 g ai/ha): 90
- Pre-emerge phytotoxicity rating (0-100), crop damage, CORN ([5]; 63 g ai/ha): 5
- Pre-emerge phytotoxicity rating (0-100), crop damage, CORN ([5]; 250 g ai/ha): 75
- Pre-emerge Herbicidal Activity, phytotoxicity rating (0-100), SETVI ([6]; 63 g ai/ha): 90
- Pre-emerge Herbicidal Activity, phytotoxicity rating (0-100), SETVI ([6]; 250 g ai/ha): 100
- Pre-emerge Herbicidal Activity, phytotoxicity rating (0-100), SORHA ([7]; 63 g ai/ha): 50
- Pre-emerge Herbicidal Activity, phytotoxicity rating (0-100), SORHA ([7]; 250 g ai/ha): 85
- Pre-emerge Herbicidal Activity, phytotoxicity rating (0-100), DIGSA ([8]; 63 g ai/ha): 80
- Pre-emerge Herbicidal Activity, phytotoxicity rating (0-100), DIGSA ([8]; 250 g ai/ha): 100
- Pre-emerge Herbicidal Activity, phytotoxicity rating (0-100), ABUTH ([9]; 63 g ai/ha): 100
- Pre-emerge Herbicidal Activity, phytotoxicity rating (0-100), ABUTH ([9]; 250 g ai/ha): 100
- Pre-emerge Herbicidal Activity, phytotoxicity rating (0-100), CHEAL ([10]; 63 g ai/ha): 100
- Pre-emerge Herbicidal Activity, phytotoxicity rating (0-100), CHEAL ([10]; 250 g ai/ha): 100
- Pre-emerge Herbicidal Activity, phytotoxicity rating (0-100), IPOHE ([11]; 63 g ai/ha): 90
- Pre-emerge Herbicidal Activity, phytotoxicity rating (0-100), IPOHE ([11]; 250 g ai/ha): 100
- Pre-emerge Herbicidal Activity, phytotoxicity rating (0-100), ECHCG ([12]; 63 g ai/ha): 60
- Pre-emerge Herbicidal Activity, phytotoxicity rating (0-100), ECHCG ([12]; 250 g ai/ha): 90
- Pre-emerge Herbicidal Activity, phytotoxicity rating (0-100), CASOB ([13]; 63 g ai/ha): 100
- Pre-emerge Herbicidal Activity, phytotoxicity rating (0-100), CASOB ([13]; 250 g ai/ha): 100
- phytotoxicity rating SETVI ([14]; 63 g ai/ha): 30
- phytotoxicity rating SETVI ([14]; 250 g ai/ha): 40
- phytotoxicity rating SORHA ([15]; 63 g ai/ha): 10
- phytotoxicity rating SORHA ([15]; 250 g ai/ha): 50
- phytotoxicity rating DIGSA ([16]; 63 g ai/ha): 10
- phytotoxicity rating DIGSA ([16]; 250 g ai/ha): 50
- phytotoxicity rating AMARE ([17]; 63 g ai/ha): 100
- phytotoxicity rating AMARE ([17]; 250 g ai/ha): 100
- phytotoxicity rating ABUTH ([18]; 63 g ai/ha): 100
- phytotoxicity rating ABUTH ([18]; 250 g ai/ha): 100
- phytotoxicity rating CHEAL ([19]; 63 g ai/ha): 80
- phytotoxicity rating CHEAL ([19]; 250 g ai/ha): 90
- phytotoxicity rating IPOHE ([20]; 63 g ai/ha): 100
- phytotoxicity rating IPOHE ([20]; 250 g ai/ha): 100
- phytotoxicity rating ECHCG ([21]; 63 g ai/ha): 10
- phytotoxicity rating ECHCG ([21]; 250 g ai/ha): 50
- phytotoxicity rating CASOB ([22]; 63 g ai/ha): 40
- phytotoxicity rating CASOB ([22]; 250 g ai/ha): 100
